Test results reported in US9833497B2, “Human originated EGF domain proteins and use of the same” (CHENGDU SOURCEBIO LIMITED-LIABILITY COMPANY, priority 2013, dated 2017).

How the values were obtained:
Assay type in all cases: cell-based
E. coli DH5α = test: Antibacterial activity: MIC and growth curve against E. coli DH5α in 96-well plate; conditions: minimal inhibitory concentration against E. coli DH5α; 96-well plate, 5×10^5 CFU/mL, 37° C., judged after 8 h
Outline: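 Log-phase bacteria (OD600 ~0.5) resuspended in LB at 5×10^5 CFU/mL, exposed to recombinant protein at 50, 25, 12.5 μg/mL final in triplicate, 37 °C shaking at 175 rpm. OD600 read every 30 min; MIC is lowest concentration showing no growth.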

E. coli BL21 = test: MIC against Gram-negative bacteria: E. coli BL21; conditions: 5×10^5 CFU/mL
Outline: (§1)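 Broth microdilution, LB medium, final inoculum 5×10^5 CFU/mL from McFarland 0.5 cultures. Recombinant human EGF domain proteins tested in two-fold steps, n=3. MIC: lowest concentration, no growth.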

Pseudomonas aeruginosa = test: MIC against Gram-negative bacteria: Pseudomonas aeruginosa; conditions: 5×10^5 CFU/mL
Outline: as §1

Klebsiella pneumonia = test: MIC against Gram-negative bacteria: Klebsiella pneumonia; conditions: 5×10^5 CFU/mL
Outline: as §1

Enterobacter cloacae = test: MIC against Gram-negative bacteria: Enterobacter cloacae; conditions: 5×10^5 CFU/mL
Outline: as §1

Aeromonas hydrophila = test: MIC against Gram-negative bacteria: Aeromonas hydrophila; conditions: 5×10^5 CFU/mL
Outline: as §1

Citrobacter diversus = test: MIC against Gram-negative bacteria: Citrobacter diversus; conditions: 5×10^5 CFU/mL
Outline: as §1

Moraxella catarrhalis = test: MIC against Gram-negative bacteria: Moraxella catarrhalis; conditions: 5×10^5 CFU/mL
Outline: as §1

Proteus mirabilis = test: MIC against Gram-negative bacteria: Proteus mirabilis; conditions: 5×10^5 CFU/mL
Outline: as §1

Proteus vulgaris = test: MIC against Gram-negative bacteria: Proteus vulgaris; conditions: 5×10^5 CFU/mL
Outline: as §1

Serratia marcescens = test: MIC against Gram-negative bacteria: Serratia marcescens; conditions: 5×10^5 CFU/mL
Outline: as §1

[1] = 10 h cultivation at 37° C., two-fold serial dilution
[2] = P. aeruginosa, 10 h cultivation at 37° C.
[3] = K. pneumonia, 10 h cultivation at 37° C.
[4] = E. cloacae, 10 h cultivation at 37° C.
[5] = A. hydrophila, 10 h cultivation at 37° C.
[6] = C. diversus, 10 h cultivation at 37° C.
[7] = M. catarrhalis, 10 h cultivation at 37° C.
[8] = P. mirabilis, 10 h cultivation at 37° C.
[9] = P. vulgaris, 10 h cultivation at 37° C.
[10] = S. marcescens, 10 h cultivation at 37° C.

PRT454 (LPDQCTPNPCDRKGTQACQDLMGNFFCLCKAGWGGRLCD; listed as Homo sapiens)
MIC (E. coli DH5α): 50 µg/mL | MIC against E. coli BL21 (E. coli BL21; 96-well plate, 37° C., 10 h): 12.5 µg/mL | MIC against P. aeruginosa (Pseudomonas aeruginosa; 96-well plate, 37° C., 10 h): 25 µg/mL | MIC against K. pneumonia (Klebsiella pneumonia; 96-well plate, 37° C., 10 h): 50 µg/mL | MIC against E. cloacae (Enterobacter cloacae; 96-well plate, 37° C., 10 h): 25 µg/mL | MIC against A. hydrophila (Aeromonas hydrophila; 96-well plate, 37° C., 10 h): 12.5 µg/mL | MIC against C. diversus (Citrobacter diversus; 96-well plate, 37° C., 10 h): 25 µg/mL | MIC against M. catarrhalis (Moraxella catarrhalis; 96-well plate, 37° C., 10 h): 50 µg/mL | MIC against P. mirabilis (Proteus mirabilis; 96-well plate, 37° C., 10 h): 12.5 µg/mL | MIC against P. vulgaris (Proteus vulgaris; 96-well plate, 37° C., 10 h): 50 µg/mL | MIC against S. marcescens (Serratia marcescens; 96-well plate, 37° C., 10 h): 12.5 µg/mL

PRT134 (IKDRCLPNYCEHGGSCSQSWTTFYCNCSDTSYTGATCH; listed as Homo sapiens)
MIC (E. coli DH5α): 12.5 µg/mL | MIC (μg/mL) E. coli BL21 (E. coli BL21; 96-well plate, 37° C., 10 h): 12.5 µg/mL | MIC (μg/mL) P. aeruginosa (Pseudomonas aeruginosa; Pseudomonas aeruginosa, 96-well plate, 37° C., 10 h): 12.5 µg/mL | MIC (μg/mL) K. pneumonia (Klebsiella pneumonia; Klebsiella pneumonia, 96-well plate, 37° C., 10 h): 25 µg/mL | MIC (μg/mL) E. cloacae (Enterobacter cloacae; Enterobacter cloacae, 96-well plate, 37° C., 10 h): 12.5 µg/mL | MIC (μg/mL) A. hydrophila (Aeromonas hydrophila; Aeromonas hydrophila, 96-well plate, 37° C., 10 h): 25 µg/mL | MIC (μg/mL) C. diversus (Citrobacter diversus; Citrobacter diversus, 96-well plate, 37° C., 10 h): 25 µg/mL | MIC (μg/mL) M. catarrhalis (Moraxella catarrhalis; Moraxella catarrhalis, 96-well plate, 37° C., 10 h): 12.5 µg/mL | MIC (μg/mL) P. mirabilis (Proteus mirabilis; Proteus mirabilis, 96-well plate, 37° C., 10 h): 100 µg/mL | MIC (μg/mL) P. vulgaris (Proteus vulgaris; Proteus vulgaris, 96-well plate, 37° C., 10 h): 25 µg/mL | MIC (μg/mL) S. marcescens (Serratia marcescens; Serratia marcescens, 96-well plate, 37° C., 10 h): 12.5 µg/mL

PRT1148 (NINECSSSPCLHGADCEDHINGYVCKCQPGWSGHHCE; listed as Homo sapiens)
MIC (E. coli DH5α): 12.5 µg/mL | MIC E. coli BL21 (E. coli BL21; [1]): 25 µg/mL | MIC P. aeruginosa (Pseudomonas aeruginosa; [1]): 12.5 µg/mL | MIC K. pneumonia (Klebsiella pneumonia; [1]): 25 µg/mL | MIC E. cloacae (Enterobacter cloacae; [1]): 12.5 µg/mL | MIC A. hydrophila (Aeromonas hydrophila; [1]): 12.5 µg/mL | MIC C. diversus (Citrobacter diversus; [1]): 12.5 µg/mL | MIC M. catarrhalis (Moraxella catarrhalis; [1]): 12.5 µg/mL | MIC P. mirabilis (Proteus mirabilis; [1]): 12.5 µg/mL | MIC P. vulgaris (Proteus vulgaris; [1]): 25 µg/mL | MIC S. marcescens (Serratia marcescens; [1]): 12.5 µg/mL

PRT634 (DIDECQHRHLCAHGQCRNTEGSFQCVCDQGYRASGLGDHCE; listed as Homo sapiens)
MIC (E. coli DH5α): 12.5 µg/mL | MIC E. coli BL21 (E. coli BL21; 96-well plate, 37° C., 10 h): 25 µg/mL | MIC P. aeruginosa (Pseudomonas aeruginosa; 96-well plate, 37° C., 10 h): 50 µg/mL | MIC K. pneumonia (Klebsiella pneumonia; 96-well plate, 37° C., 10 h): 25 µg/mL | MIC E. cloacae (Enterobacter cloacae; 96-well plate, 37° C., 10 h): 12.5 µg/mL | MIC A. hydrophila (Aeromonas hydrophila; 96-well plate, 37° C., 10 h): 25 µg/mL | MIC C. diversus (Citrobacter diversus; 96-well plate, 37° C., 10 h): 12.5 µg/mL | MIC M. catarrhalis (Moraxella catarrhalis; 96-well plate, 37° C., 10 h): 25 µg/mL | MIC P. mirabilis (Proteus mirabilis; 96-well plate, 37° C., 10 h): 25 µg/mL | MIC P. vulgaris (Proteus vulgaris; 96-well plate, 37° C., 10 h): 12.5 µg/mL | MIC S. marcescens (Serratia marcescens; 96-well plate, 37° C., 10 h): 25 µg/mL

PRT809 (NESCTCANGAACSPIDGSCSCTPGWLGDTCE; listed as Homo sapiens)
MIC (E. coli DH5α): 25 µg/mL | MIC (μg/mL) E. coli BL21 (E. coli BL21; 10 h cultivation at 37° C.): 12.5 µg/mL | MIC (μg/mL) P. aeruginosa (Pseudomonas aeruginosa; [2]): 25 µg/mL | MIC (μg/mL) K. pneumonia (Klebsiella pneumonia; [3]): 25 µg/mL | MIC (μg/mL) E. cloacae (Enterobacter cloacae; [4]): 50 µg/mL | MIC (μg/mL) A. hydrophila (Aeromonas hydrophila; [5]): 12.5 µg/mL | MIC (μg/mL) C. diversus (Citrobacter diversus; [6]): 25 µg/mL | MIC (μg/mL) M. catarrhalis (Moraxella catarrhalis; [7]): 50 µg/mL | MIC (μg/mL) P. mirabilis (Proteus mirabilis; [8]): 25 µg/mL | MIC (μg/mL) P. vulgaris (Proteus vulgaris; [9]): 12.5 µg/mL | MIC (μg/mL) S. marcescens (Serratia marcescens; [10]): 25 µg/mL

PRT848 (CQCNNRSASCDALTGACLNCQENSKGNHCEECKEGFYQSPDATKECLR; listed as Homo sapiens)
MIC (E. coli DH5α): 25 µg/mL | MIC (μg/mL) E. coli BL21 (E. coli BL21; 10 h cultivation at 37° C.): 12.5 µg/mL | MIC (μg/mL) P. aeruginosa (Pseudomonas aeruginosa; [2]): 25 µg/mL | MIC (μg/mL) K. pneumonia (Klebsiella pneumonia; [3]): 25 µg/mL | MIC (μg/mL) E. cloacae (Enterobacter cloacae; [4]): 50 µg/mL | MIC (μg/mL) A. hydrophila (Aeromonas hydrophila; [5]): 12.5 µg/mL | MIC (μg/mL) C. diversus (Citrobacter diversus; [6]): 50 µg/mL | MIC (μg/mL) M. catarrhalis (Moraxella catarrhalis; [7]): 12.5 µg/mL | MIC (μg/mL) P. mirabilis (Proteus mirabilis; [8]): 50 µg/mL | MIC (μg/mL) P. vulgaris (Proteus vulgaris; [9]): 25 µg/mL | MIC (μg/mL) S. marcescens (Serratia marcescens; [10]): 12.5 µg/mL

PRT794 (SSRCGCKNDAVCSPVDGSCTCKAGWHGVDCS; listed as Homo sapiens)
MIC (E. coli DH5α): 50 µg/mL | MIC (μg/mL) E. coli BL21 (E. coli BL21; 10 h cultivation at 37° C.): 12.5 µg/mL | MIC (μg/mL) P. aeruginosa (Pseudomonas aeruginosa; [2]): 50 µg/mL | MIC (μg/mL) K. pneumonia (Klebsiella pneumonia; [3]): 12.5 µg/mL | MIC (μg/mL) E. cloacae (Enterobacter cloacae; [4]): 25 µg/mL | MIC (μg/mL) A. hydrophila (Aeromonas hydrophila; [5]): 50 µg/mL | MIC (μg/mL) C. diversus (Citrobacter diversus; [6]): 25 µg/mL | MIC (μg/mL) M. catarrhalis (Moraxella catarrhalis; [7]): 12.5 µg/mL | MIC (μg/mL) P. mirabilis (Proteus mirabilis; [8]): 25 µg/mL | MIC (μg/mL) P. vulgaris (Proteus vulgaris; [9]): 50 µg/mL | MIC (μg/mL) S. marcescens (Serratia marcescens; [10]): 12.5 µg/mL
